Here are results for five molecules from patent US8921385B2, “5-substituted quinazolinone derivatives and compositions comprising and methods of using the same” (Celgene Corporation, priority 2006, dated 2014).

As usually defined, the melting point is the temperature, or range, at which the solid turns liquid.

Consider `Cc1nc2cccc(NC(=O)CCl)c2c(=O)n1C1CCC(=O)NC1=O` (centres unmarked) [Example 6.26, 2-Chloro-N-[3-(2,6-Dioxo-Piperidin-3-yl)-2-Methyl-4-Oxo-3,4-Dihydro-Quinazolin-5-yl]-Acetamide], for which the melting point was in the range of 275 to 277 °C.
In the case of `Cc1nc2cccc(Cl)c2c(=O)n1C1CCC(=O)NC1=O` (centres unmarked) [Example 6.10, 3-(5-Chloro-2-Methyl-4-Oxo-4H-Quinazolin-3-yl)-Piperidine-2,6-Dione], the melting point is 315 °C (dec.).
With `Cc1nc2cccc(CNC(=O)c3cccc(C(F)(F)F)c3)c2c(=O)n1C1CCC(=O)NC1=O` (centres unmarked) [Example 6.57, N-[3-(2,6-Dioxo-Piperidin-3-yl)-2-Methyl-4-Oxo-3,4-Dihydro-Quinazolin-5-ylmethyl]-3-Trifluoromethyl-Benzamide] the figure was 233 to 235 °C; with `COCC(=O)Nc1cccc2nc(C)n(C3CCC(=O)NC3=O)c(=O)c12` (centres unmarked) [Example 6.20, N-[3-(2,6-Dioxo-Piperidin-3-yl)-2-Methyl-4-Oxo-3,4-Dihydro-Quinazolin-5-yl]-2-Methoxy-Acetamide], 282 to 284 °C; with `CC(=O)Nc1cccc2nc(C)n(C3CCC(=O)NC3=O)c(=O)c12` (centres unmarked) [Example 6.21, N-[3-(2,6-Dioxo-Piperidin-3-yl)-2-Methyl-4-Oxo-3,4-Dihydro-Quinazolin-5-yl]-Acetamide], 320 to 322 °C.
